Test results from patent publication US20100056544A1, “Salts with CRTH2 Antagonist Activity” (Oxagen Limited, priority 2007, published 2010).
Read-outs that look alike come from different tables or passages of the source. One block for each compound: values may come before it.

What was measured:
[1] = cited from earlier work; for pKa of base: Table 5; for pKa 1: pKa value of base, Tables 2-4
[2] = Solubility of the salts in water determined by HPLC, with pH of the filtered mixtures; conditions: for Solubility: HPLC grade water, stirred 18 hours at 15 to 25° C., filtered, HPLC
[3] = basic solubility screen of Compound 1 free acid in solvents; type: physicochemical; conditions: for Solution Yes/No 20 vol R.T.: 50 mg, stirred at 15 to 25° C.
[4] = pH of the filtered mixtures in water

Compound: Deanol
pKa of base [1]: 8.8 | pKa 1 [1]: 8.8

Solubility [2]: 32.36 mg/mL | pH [2, 4]: 12 | pH ([2]; pH of the filtered mixtures in water, listed as potassium): 12
Compound: Cc1c(Cc2ccc3ccccc3n2)c2cc(F)ccc2n1CC(=O)O [Potassium, (5-fluoro-2-methyl-3-quinolin-2-ylmethyl-indol-1-yl)acetic acid]
pKa of base [1]: 14.0

Solubility [2]: 84.28 mg/mL | pH [2, 4]: 9 | solubility in water compared (in words) ([2]; water): most soluble
Compound: Cc1c(Cc2ccc3ccccc3n2)c2cc(F)ccc2n1CC(=O)O [Sodium, (5-fluoro-2-methyl-3-quinolin-2-ylmethyl-indol-1-yl)acetic acid]
pKa of base [1]: 14.0

Compound: C[N+](C)(C)CCO [Choline]
pKa of base [1]: >11 | pKa 1 [1]: >11

Solubility [2]: 0.05 mg/mL | pH [2, 4]: 7 | solubility in NMP (50 mg retained in 20 vol) ([3]; NMP at 15 to 25° C. after obtaining a solution at 100° C.): ≥ 50 mg per ml | Solution Yes/No 20 vol reflux ([3]; solvent Acetone): No | Solution Yes/No 40 vol reflux ([3]; solvent Acetone): No | Solution on cooling to R.T. ([3]; solvent Acetone): No | Solution Yes/No 20 vol R.T. ([3]; solvent Acetone): No | Solution Yes/No 20 vol reflux ([3]; solvent Acetonitrile): No | Solution Yes/No 40 vol reflux ([3]; solvent Acetonitrile): No | Solution on cooling to R.T. ([3]; solvent Acetonitrile): No | Solution Yes/No 20 vol R.T. ([3]; solvent Acetonitrile): No | Solution Yes/No 20 vol reflux ([3]; solvent Chloroform): No | Solution Yes/No 40 vol reflux ([3]; solvent Chloroform): No | Solution on cooling to R.T. ([3]; solvent Chloroform): No | Solution Yes/No 20 vol R.T. ([3]; solvent Chloroform): No | Solution on cooling to R.T. ([3]; solvent DMF): No | Solution Yes/No 20 vol R.T. ([3]; solvent DMF): No | Solution Yes/No 20 vol reflux ([3]; solvent DMF, heated to 100° C.): No | Solution Yes/No 40 vol reflux ([3]; solvent DMF, heated to 100° C.): Yes | Solution on cooling to R.T. ([3]; solvent DMSO): No | Solution Yes/No 20 vol R.T. ([3]; solvent DMSO): No | Solution Yes/No 20 vol reflux ([3]; solvent DMSO, heated to 100° C.): Yes | Solution Yes/No 20 vol reflux ([3]; solvent Ethanol): No | Solution Yes/No 40 vol reflux ([3]; solvent Ethanol): No | Solution on cooling to R.T. ([3]; solvent Ethanol): No | Solution Yes/No 20 vol R.T. ([3]; solvent Ethanol): No | Solution Yes/No 20 vol reflux ([3]; solvent Ethyl acetate): No | Solution Yes/No 40 vol reflux ([3]; solvent Ethyl acetate): No | Solution on cooling to R.T. ([3]; solvent Ethyl acetate): No | Solution Yes/No 20 vol R.T. ([3]; solvent Ethyl acetate): No | Solution Yes/No 20 vol reflux ([3]; solvent Heptanes): No | Solution Yes/No 40 vol reflux ([3]; solvent Heptanes): No | Solution on cooling to R.T. ([3]; solvent Heptanes): No | Solution Yes/No 20 vol R.T. ([3]; solvent Heptanes): No | Solution Yes/No 20 vol reflux ([3]; solvent IPA): No | Solution Yes/No 40 vol reflux ([3]; solvent IPA): No | Solution on cooling to R.T. ([3]; solvent IPA): No | Solution Yes/No 20 vol R.T. ([3]; solvent IPA): No | Solution Yes/No 20 vol reflux ([3]; solvent Methanol): No | Solution Yes/No 40 vol reflux ([3]; solvent Methanol): No | Solution on cooling to R.T. ([3]; solvent Methanol): No | Solution Yes/No 20 vol R.T. ([3]; solvent Methanol): No | Solution on cooling to R.T. ([3]; solvent NMP): Yes | Solution Yes/No 20 vol R.T. ([3]; solvent NMP): No | Solution Yes/No 20 vol reflux ([3]; solvent NMP, heated to 100° C.): Yes | Solution Yes/No 20 vol reflux ([3]; solvent TBME): No | Solution Yes/No 40 vol reflux ([3]; solvent TBME): No | Solution on cooling to R.T. ([3]; solvent TBME): No | Solution Yes/No 20 vol R.T. ([3]; solvent TBME): No | Solution Yes/No 20 vol reflux ([3]; solvent Toluene): No | Solution Yes/No 40 vol reflux ([3]; solvent Toluene): No | Solution on cooling to R.T. ([3]; solvent Toluene): No | Solution Yes/No 20 vol R.T. ([3]; solvent Toluene): No | Solution Yes/No 20 vol reflux ([3]; solvent Water): No | Solution Yes/No 40 vol reflux ([3]; solvent Water): No | Solution on cooling to R.T. ([3]; solvent Water): No | Solution Yes/No 20 vol R.T. ([3]; solvent Water): No | Solubility ([3]; variety of solvents (Table 1), organic solvent or mixture, thermodynamic from solid): < 25 mg/mL
Compound: Cc1c(Cc2ccc3ccccc3n2)c2cc(F)ccc2n1CC(=O)O [Compound 1, (5-fluoro-2-methyl-3-quinolin-2-ylmethyl-indol-1-yl)acetic acid]

Compound: c1c[nH]cn1 [Imidazole]
pKa of base [1]: 7 | pKa 1 [1]: 7

pH [2]: 8 | Solubility [2]: 4.98 mg/mL
Compound: Cc1c(Cc2ccc3ccccc3n2)c2cc(F)ccc2n1CC(=O)O [Ammonium, (5-fluoro-2-methyl-3-quinolin-2-ylmethyl-indol-1-yl)acetic acid]

Compound: CNC[C@H](O)[C@@H](O)[C@H](O)[C@H](O)CO [N-methyl Glucamine]
pKa of base [1]: 8

Solubility [2]: 3.26 mg/mL | pH [2, 4]: 9
Compound: Cc1c(Cc2ccc3ccccc3n2)c2cc(F)ccc2n1CC(=O)O [Tris, (5-fluoro-2-methyl-3-quinolin-2-ylmethyl-indol-1-yl)acetic acid]
pKa of base [1]: 8

Compound: C[N+](C)(C)CC(=O)O [Betaine]
pKa of base [1]: 12.2

Compound: OCCN1CCOCC1 [4-(2-Hydroxyethyl)morpholine]
pKa of base [1]: 7.4 | pKa 1 [1]: 7.4

Compound: OCCN1CCCC1 [1-(2-Hydroxyethyl)pyrrolidine]
pKa of base [1]: 9.4 | pKa 1 [1]: 9.4
